{"source": "patent US8080577B2", "about": "“Diindolylmethane formulations for the treatment of leiomyomas” (Bioresponse, L.L.C., priority 2004, dated 2011)", "type_in_all_cases": "in vivo, human", "key": {"[1]": {"tested_on": "uterine leiomyomas", "experiment": "Oral absorption-enhanced DIM in women with uterine leiomyomas, tumor volume by serial pelvic ultrasound", "conditions": "for Post-DIM Treatment Tumor Volume: oral absorption-enhanced DIM", "procedure": "Expected results are clinical improvement in symptoms and reduction of leiomyoma size documented in serial sonograms. […] Women with uterine leiomyomas have been selected based on the findings of abnormal uterine sonograms showing measurable leiomyoma documented on more than one occasion. Three subjects were proceeding to provide a baseline 12-hour urine collection and began to take absorbable DIM 150 to 450 mg [37.5-112 mg actual DIM] twice daily for 3-6 months. Two women have completed participation in a preliminary study, completing 2 and 6 month treatment periods. Subject A was a multiparous person with regular menstrual periods, taking thyroid hormone replacement to correct primary hypothyroidism and using no other medications. Subject B was a person taking no medications with regular periods. After informed consent, a pretreatment ultrasound was obtained for each subject. Each subject provided a 12 or 24 hour urine specimen which was frozen. Subject A began taking 2 capsules twice daily of absorption-enhanced DIM (BioResponse, LLC, Boulder Colo.) providing DIM at […]. Subject B took 3 capsules twice daily of absorption-enhanced DIM (BioResponse, LLC, Boulder Colo.) providing DIM at […]. After 2 months of treatment, Subject A was re-evaluated by the same ultrasound technician using the same equipment and at the same phase of their menstrual cycle. A post treatment urine was also obtained, collected at the same point in the menstrual cycle as the baseline urine sample. Similarly, Subject B was re-evaluated after 6 months of treatment using absorption-enhanced DIM (BioResponse-DIM). They took a higher twice daily dose providing […]. Their re-evaluation included pelvic ultrasonography following a series of 3 pre-treatment pelvic ultrasound evaluations all performed with the same equipment. Like Subject A, Subject B provided a before and after DIM treatment urine sample. The pelvic ultrasound data were analysed using a mathematical formula to calculate the pre-treatment and post-treatment volume of individual leiomyoma based on the widest diameter and the diameter perpendicular to this measured in centimeters (cm). A calculation of individual tumor volume was performed, treating each tumor as an ovoid mass, using the formula: V=4/3π(H/2)^2(L/2), where V=volume in cubic centimeters (cm^3), H=tumor height in centimeters (cm), and L=tumor length in centimeters (cm). This method provided individual tumor volumes in cubic centimeters (cm^3)."}, "[2]": {"tested_on": "estrogen metabolites in urine", "experiment": "GCMS assay of urinary estrogen metabolites before and after DIM treatment", "conditions": "after vs before DIM", "procedure": "After informed consent, a pretreatment ultrasound was obtained for each subject. Each subject provided a 12 or 24 hour urine specimen which was frozen. Subject A began taking 2 capsules twice daily of absorption-enhanced DIM (BioResponse, LLC, Boulder Colo.) providing DIM at […]. Subject B took 3 capsules twice daily of absorption-enhanced DIM (BioResponse, LLC, Boulder Colo.) providing DIM at […]. After 2 months of treatment, Subject A was re-evaluated by the same ultrasound technician using the same equipment and at the same phase of their menstrual cycle. A post treatment urine was also obtained, collected at the same point in the menstrual cycle as the baseline urine sample. Similarly, Subject B was re-evaluated after 6 months of treatment using absorption-enhanced DIM (BioResponse-DIM). They took a higher twice daily dose providing […]. Their re-evaluation included pelvic ultrasonography following a series of 3 pre-treatment pelvic ultrasound evaluations all performed with the same equipment. Like Subject A, Subject B provided a before and after DIM treatment urine sample.\nThe urine samples were tested at the Bradlow/Sepkovic Laboratory, Hackensack University Medical Center, Hackensack, N.J. The technique utilized was an established gas chromatography-mass spectrometry (GCMS) assay for estradiol (E2), estrone (E1), 2-hydroxy estrone (2OH-E1), 4-hydroxy estrone (4OH-E1), 16-hydroxy estrone (16OH-E1), and estriol (E3) in urine (Michnovicz et al., 1997, J Natl Cancer Inst. 89(10):718-23). […] Laboratory analysis is expected to show an increase in 2-hydroxy estrone, and a decrease in 16-hydroxy estrone, as measured in pre-treatment as compared to post-treatment urine samples. […] Results of before and after DIM treatment are presented in Table 8, showing the metabolites of interest as a percent of the total estrogen metabolites measured and as ratios of the amounts of 2OH-E1 to 16OH-E1 (2OH-E1/16OH-E1) determined for each sample. […]"}, "[3]": {"tested_on": "uterine leiomyoma", "experiment": "Clinical case: oral absorption-enhanced DIM in a person with symptomatic uterine leiomyoma", "conditions": "after two months", "procedure": "A person was symptomatic from uterine leiomyoma, experiencing painful menses with excessive bleeding, frequency of urination, and inability to exercise due to tiredness. […] A blood test indicated mild anemia. […] The patient initiated therapy with capsules of DIM, formulated for enhanced absorption as described in Example 1. A dose of 120 mg of DIM formulation, given three times per day, delivering 30 mg of actual DIM per dose, was used."}, "[4]": {"tested_on": "estrogen metabolites in urine", "experiment": "GCMS assay of urinary estrogen metabolites before and after DIM treatment"}, "[5]": {"conditions": "30 mg actual DIM three times per day"}, "[6]": {"conditions": "Subject A, 200 mg/day DIM, taken for 2 months"}, "[7]": {"conditions": "Subject B, 300 mg/day DIM, taken for 6 months"}}, "note": "Entries after “also recorded” stand apart in the source; their conditions may differ.", "data": [{"smiles": "c1ccc2c(Cc3c[nH]c4ccccc34)c[nH]c2c1", "note": "[DIM, 3,3′-diindolylmethane]", "values": [{"measurement": "average percent reduction in tumor volume", "setting": "[1]; Subject A, 2 month treatment", "value": 33.5, "unit": "%"}, {"measurement": "Percent Decrease in Tumor Volume", "setting": "[1]; Subject A, Tumor 1, oral DIM 200 mg/day, 2 months", "value": 83.11, "unit": "%"}, {"measurement": "Post-DIM Treatment Tumor Volume", "setting": "[1]; Subject A, Tumor 1, 200 mg/day DIM, 2 months", "value": 3.783, "unit": "cm^3"}, {"measurement": "Percent Decrease in Tumor Volume", "setting": "[1]; Subject A, Tumor 2, oral DIM 200 mg/day, 2 months", "value": 2.06, "unit": "%"}, {"measurement": "Post-DIM Treatment Tumor Volume", "setting": "[1]; Subject A, Tumor 2, 200 mg/day DIM, 2 months", "value": 114.4901, "unit": "cm^3"}, {"measurement": "Percent Decrease in Tumor Volume", "setting": "[1]; Subject A, Tumor 3, oral DIM 200 mg/day, 2 months", "value": 15.32, "unit": "%"}, {"measurement": "Post-DIM Treatment Tumor Volume", "setting": "[1]; Subject A, Tumor 3, 200 mg/day DIM, 2 months", "value": 53.2, "unit": "cm^3"}, {"measurement": "average reduction in tumor volume", "setting": "[1]; Subject B, 6 month treatment", "value": 78.6, "unit": "%"}, {"measurement": "Percent Decrease in Tumor Volume", "setting": "[1]; Subject B, Tumor 1, oral DIM 300 mg/day, 6 months", "value": 71.9605, "unit": "%"}, {"measurement": "Post-DIM Treatment Tumor Volume", "setting": "[1]; Subject B, Tumor 1, 300 mg/day DIM, 6 months", "value": 5.575, "unit": "cm^3"}, {"measurement": "Percent Decrease in Tumor Volume", "setting": "[1]; Subject B, Tumor 2, oral DIM 300 mg/day, 6 months", "value": 47.75, "unit": "%"}, {"measurement": "Post-DIM Treatment Tumor Volume", "setting": "[1]; Subject B, Tumor 2, 300 mg/day DIM, 6 months", "value": 1.877, "unit": "cm^3"}, {"measurement": "Percent Decrease in Tumor Volume", "setting": "[1]; Subject B, Tumor 3, oral DIM 300 mg/day, 6 months", "value": 38.51, "unit": "%"}, {"measurement": "Post-DIM Treatment Tumor Volume", "setting": "[1]; Subject B, Tumor 3, 300 mg/day DIM, 6 months", "value": 6.094, "unit": "cm^3"}, {"measurement": "Percent Decrease in Tumor Volume", "setting": "[1]; Subject B, Tumor 4, oral DIM 300 mg/day, 6 months", "value": 53.06, "unit": "%"}, {"measurement": "Post-DIM Treatment Tumor Volume", "setting": "[1]; Subject B, Tumor 4, 300 mg/day DIM, 6 months", "value": 0.8849, "unit": "cm^3"}, {"measurement": "Percent Decrease in Tumor Volume", "setting": "[1]; Subject B, Tumor 5, oral DIM 300 mg/day, 6 months", "value": 62.41, "unit": "%"}, {"measurement": "Post-DIM Treatment Tumor Volume", "setting": "[1]; Subject B, Tumor 5, 300 mg/day DIM, 6 months", "value": 0.7964, "unit": "cm^3"}, {"measurement": "leiomyoma size by serial pelvic ultrasound", "setting": "[1]; preliminary treatment of women with oral DIM", "value": "meaningful reduction of leiomyoma size; also recorded: consistent reduction of intra-uterine leiomyoma size"}, {"measurement": "side effects associated with reduction in leiomyoma volume", "setting": "[1]; women treated with oral DIM, 2 and 6 months", "value": "not associated with amenorrhea, hypo-estrogenemia, hot flashes, or other reported side effects"}, {"measurement": "change in 16OH-E1", "setting": "[2]; Subject A", "value": "treatment related reduction"}, {"measurement": "change in 4OH-E1", "setting": "[2]; Subject B, treated at a higher dose", "value": "treatment related reduction"}, {"measurement": "change in 2OH-E1 and the 2OH-E1/16OH-E1 ratio", "setting": "[2]; both Subjects", "value": "large treatment related increases"}, {"measurement": "repeat abdominal exam", "setting": "[3]; [5]", "value": "no visible or palpable pelvic masses"}, {"measurement": "repeat pelvic exam", "setting": "[3]; [5]", "value": "normal appearing uterine cervix and a palpable uterus of much reduced size"}, {"measurement": "myoma-related symptoms described by the patient", "setting": "[3]; 120 mg DIM formulation (30 mg actual DIM) three times per day", "value": "normal menstrual flow with normal levels of discomfort and improved energy"}, {"measurement": "2OH-E1/16OH-E1 ratio, After DIM", "setting": "[4]; [6]", "value": 1.7}, {"measurement": "2OH-Estrone (2OH-E1), percent of total estrogen metabolites measured, After DIM", "setting": "[4]; [6]", "value": 8.3, "unit": "%"}, {"measurement": "4OH-Estrone (4OH-E1), percent of total estrogen metabolites measured, After DIM", "setting": "[4]; [6]", "value": 0.7, "unit": "%"}, {"measurement": "16OH-Estrone (16OH-E1), percent of total estrogen metabolites measured, After DIM", "setting": "[4]; [6]", "value": 4.9, "unit": "%"}, {"measurement": "2OH-E1/16OH-E1 ratio, After DIM", "setting": "[4]; [7]", "value": 9.5}, {"measurement": "2OH-Estrone (2OH-E1), percent of total estrogen metabolites measured, After DIM", "setting": "[4]; [7]", "value": 35, "unit": "%"}, {"measurement": "4OH-Estrone (4OH-E1), percent of total estrogen metabolites measured, After DIM", "setting": "[4]; [7]", "value": 1.7, "unit": "%"}]}]}
